From patent publication US20250197420A1, “MACROCYCLIC COMPOUNDS, COMPOSITIONS, AND METHODS OF USING THEREOF” (Sionna Therapeutics Inc., priority 2022, published 2025)

Assays:
[1] = molecular target: T1, Purified recombinant NBD1 (Homo sapiens, UniProt P13569); assay: Aggregation analysis using differential static light scattering (DSLS): thermal stability of NBD1; assay type: binding; conditions: NBD1 0.2 mg/ml; Tagg of compound well minus average Tagg of DMSO control wells
T1 construct: Purified recombinant NBD1 was produced using previously described methods; made in house
T1 sequence (P13569 423-646 limits assumed): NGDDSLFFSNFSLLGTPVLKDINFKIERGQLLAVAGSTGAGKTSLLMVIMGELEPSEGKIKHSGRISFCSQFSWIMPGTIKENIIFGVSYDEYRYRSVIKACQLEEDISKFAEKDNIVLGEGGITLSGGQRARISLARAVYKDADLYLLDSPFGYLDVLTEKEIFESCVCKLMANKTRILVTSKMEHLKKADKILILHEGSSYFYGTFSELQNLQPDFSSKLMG
Experimental: Purified recombinant NBD1 was produced using previously described methods (A. Schmidt, J. L. Mendoza, P. J. Thomas (2011) Biochemical and Biophysical Approaches to Probe CFTR Structure (365-376) M. D. Amaral, K. Kunzelmann (eds.), Cystic Fibrosis, Methods in Molecular Biology 741, Springer Science+Business Media). The effect of test compounds on thermal stability of NBD1 was evaluated by differential static light scattering (DSLS) using the Harbinger Stargazer-384 instrument (Epiphyte Three, Toronto, Canada). Test compounds were dissolved and diluted to desired concentrations in 100% DMSO. The compounds or DMSO controls (100 nL) were stamped into wells of a […] low volume optical plate (Corning Inc., Corning, NY) using the Echo 555 acoustic liquid handler (Labcyte Inc., San Jose, CA).
NBD1 protein was diluted to 0.2 mg/ml in S200 buffer (50 mM Tris-HCl, 150 mM NaCl, 5 mM MgCl2, 2 mM ATP, 2 mM DTT, pH7.6) containing 1% glycerol. 10 uL of protein solution was aliquoted into the 384-well plate harboring the test compounds and 10 uL mineral oil was overlaid onto the protein solution, using the epMotion robotic liquid handler (Eppendorf North America, Hauppauge, NY). After placing into the Stargazer instrument, the plate was heated at 1° C. per minute to 70° C. Images were captured from 25° C. to 70° C. every 0.5° C. At the end of the experiment run, instrument software integrated image files and analyzed data automatically. A […] regression curve was generated for each well, representing the increase in light scattering over time. A temperature of aggregation (Tagg) was calculated based on the inflection point of the curve. To better compare data across experiments the average Tagg for DMSO control wells was calculated and subtracted from values for wells containing compounds to obtain a “ΔTagg” value. These ΔTagg values reflect stabilizing efficacy of the compounds. As set forth in Table 2 below, an ΔTagg value less than or equal to 5° C. is marked “A”; a value above 5° C. and less than or equal to 10° C. is marked “B”; a value greater than 10° C. and less than or equal to 25° C. is marked “C”.

[2] = system: Primary human bronchial epithelial cells from a ΔF508 homozygous CF donor (CF-HBE cells); assay: TECC24 recording of CFTR-mediated transepithelial chloride transport, AUC fold over benchmark VX-809 @10 μM; assay type: cell-based; conditions: 48 hours incubation, AUC of forskolin-stimulated IEQ
Experimental: The effects of a test agent on CFTR-mediated transepithelial chloride transport is measured using TECC24 recording analysis. Test agents are solubilized in DMSO. Solubilized test agents are mixed with incubation medium containing DMEM/F12, Ultroser G (0.5%; Crescent Chemical, catalog #67042), Hyclone Fetal Clone II (2%; GE Healthcare, catalog #SH30066.02), bovine brain extract (0.25%; Lonza, catalog #CC-4098), insulin ([…]), IL-13 (10 ng/mL), hydrocortisone (20 nM), transferrin ([…]), triiodothyronine (500 nM), ethanolamine (250 nM), epinephrine (1.5 μM), phosphoethanolamine (250 nM), and retinoic acid (10 nM). Primary human bronchial epithelial cells from a ΔF508 homozygous CF donor (CF-HBE cells; from University of North Carolina Cystic Fibrosis Tissue Procurement Center), grown on Transwell HTS 24-well cell culture inserts (Costar, catalog #3378), are exposed to test agents or controls dissolved in incubation medium. The CF-HBE cells are cultured at 36.5° C. for 48 hours before TECC24 recordings are performed in the presence or absence of test agent, a positive control or vehicle (DMSO).
Following incubation, the transwell cell culture inserts containing the test agent or control-treated CF-HBE cells are loaded onto a TECC24 apparatus (TECC v7 or MTECC v2; EP Design) to record the transepithelial voltage (VT) and resistance (TEER) using 4 AgCl electrodes per well configured in current-clamp mode. The apical and basolateral bath solutions both contain (in mM) 140 NaCl, 5 KCl, 2 CaCl2), 1 MgCl2, 10 Hepes, and 10 glucose (adjusted to pH 7.4 with NaOH). To inhibit basal Na+ absorption, the ENaC inhibitor benzamil (10 μM) is added to the bath. Then, the adenylate cyclase activator, forskolin (10 μM), is added to the bath to activate CFTR. The forskolin-stimulated Cl− transport is halted by addition of CFTR inhibitor-172 (20 μM) to the bath at the end of the experiment to confirm specificity. VT and TEER recordings are digitally acquired at routine intervals using TECC or MTECC software (EP Design). VT and TEER are transformed into equivalent transepithelial Cl− current (IEQ), and the Area Under the Curve (AUC) of the IEQ time course between forskolin and CFTR inhibitor-172 addition is generated using Excel (Microsoft). Efficacy is expressed as the ratio of the test agent AUC divided by vehicle AUC. EC50s based on AUC are generated using the non-linear regression log(agonist) vs. response function in Prism software (Graphpad) with HillSlope fixed=1.
If a test agent increases the AUC of the forskolin-stimulated IEQ relative to VX-809 in CF-HBE cells, and this increase is inhibited by CFTR inhibitor-172, then the test agent is considered a CFTR corrector. TECC assay efficacy is expressed as the ratio of the test agent AUC divided by VX-809 AUC. As set forth in Table 2 below, a TECC value less than 3 is marked “A”; a value between 3 and 6 is marked “B”; a value between 6 and 20 is marked “C”.

## CN1CC(C)(C)COCC(C)(c2cccc(CCC(=O)O)c2)c2cnc([nH]2)-c2cc(ccc2F)Oc2c(F)cc3[nH]ccc3c2CCC1=O (single isomer, unassigned) [Compound 20B, 3-[3-(23,29-Difluoro-6,10,10,12-tetramethyl-13-oxo-8,25-dioxa-3,12,20,31-tetrazapentacyclo[24.3.1.12,5.016,24.017,21]hentriaconta-1(30),2,4,16,18,21,23,26,28-nonaen-6-yl)phenyl]propanoic acid]
[1]
  DSLS (ΔTagg): A (an ΔTagg value less than or equal to 5 °C is marked “A”)
[2]
  TECC (test agent AUC divided by VX-809 AUC): A (a TECC value less than 3 is marked “A”)

## CN1CC(C)(C)COCC(C)(c2cccc(CCC(=O)O)c2)c2cnc([nH]2)-c2cc(ccc2F)Oc2c(F)cc3[nH]ccc3c2CCC1=O (single isomer, unassigned) [Compound 20C, 3-[3-(23,29-Difluoro-6,10,10,12-tetramethyl-13-oxo-8,25-dioxa-3,12,20,31-tetrazapentacyclo[24.3.1.12,5.016,24.017,21]hentriaconta-1(30),2,4,16,18,21,23,26,28-nonaen-6-yl)phenyl]propanoic acid]
[1]
  DSLS (ΔTagg): C (a value greater than 10 °C and less than or equal to 25 °C is marked “C”)
[2]
  TECC (test agent AUC divided by VX-809 AUC): C (a value between 6 and 20 is marked “C”)

## CC1(C)CCCC(C)(c2cccc(CCC(=O)O)c2)c2cnc([nH]2)-c2cc(ccc2F)Oc2c(F)cc3[nH]ccc3c2CCC(=O)NC1 (single isomer, unassigned) [Compound 40A, 3-[3-(23,29-difluoro-6,10,10-trimethyl-13-oxo-25-oxa-3,12,20,31-tetrazapentacyclo-[24.3.1.12,5.016,24.017,21]hentriaconta-1(30),2,4,16,18,21,23,26,28-nonaen-6-yl)phenyl]propanoic acid]
[1]
  DSLS (ΔTagg): A (an ΔTagg value less than or equal to 5 °C is marked “A”)
[2]
  TECC (test agent AUC divided by VX-809 AUC): A (a TECC value less than 3 is marked “A”)

## CC1(C)CCCC(C)(c2cccc(CCC(=O)O)c2)c2cnc([nH]2)-c2cc(ccc2F)Oc2c(F)cc3[nH]ccc3c2CCC(=O)NC1 (single isomer, unassigned) [Compound 40B, 3-[3-(23,29-difluoro-6,10,10-trimethyl-13-oxo-25-oxa-3,12,20,31-tetrazapentacyclo-[24.3.1.12,5.016,24.017,21]hentriaconta-1(30),2,4,16,18,21,23,26,28-nonaen-6-yl)phenyl]propanoic acid]
[1]
  DSLS (ΔTagg): C (a value greater than 10 °C and less than or equal to 25 °C is marked “C”)
[2]
  TECC (test agent AUC divided by VX-809 AUC): B (a value between 3 and 6 is marked “B”)

## CC1(C)CCCCC(C)(c2cccc(CCC(=O)O)c2)c2cnc([nH]2)-c2cc(ccc2F)Oc2c(F)cc3[nH]ccc3c2CCC(=O)NC1 (single isomer, unassigned) [Compound 46A, 3-[3-(24,30-difluoro-6,11,11-trimethyl-14-oxo-26-oxa-3,13,21,32-tetrazapentacyclo[25.3.1.12,5.017,25.018,22]dotriaconta-1(30),2,4,17(25),18(22),19,23,27(31),28-nonaen-6-yl)phenyl]propanoic acid]
[1]
  DSLS (ΔTagg): A (an ΔTagg value less than or equal to 5 °C is marked “A”)
[2]
  TECC (test agent AUC divided by VX-809 AUC): A (a TECC value less than 3 is marked “A”)

## CC1(C)CCCCC(C)(c2cccc(CCC(=O)O)c2)c2cnc([nH]2)-c2cc(ccc2F)Oc2c(F)cc3[nH]ccc3c2CCC(=O)NC1 (single isomer, unassigned) [Compound 46B, 3-[3-(24,30-difluoro-6,11,11-trimethyl-14-oxo-26-oxa-3,13,21,32-tetrazapentacyclo[25.3.1.12,5.017,25.018,22]dotriaconta-1(30),2,4,17(25),18(22),19,23,27(31),28-nonaen-6-yl)phenyl]propanoic acid]
[1]
  DSLS (ΔTagg): C (a value greater than 10 °C and less than or equal to 25 °C is marked “C”)
[2]
  TECC (test agent AUC divided by VX-809 AUC): A (a TECC value less than 3 is marked “A”)

## CN1CC(C)(C)CCCC(C)(c2ccc(CCC(=O)O)cc2)c2cnc([nH]2)-c2cc(ccc2F)Oc2c(F)cc3[nH]ccc3c2CCC1=O (single isomer, unassigned) [Compound 47A, 3-[4-(23,29-Difluoro-6,10,10,12-tetramethyl-13-oxo-25-oxa-3,12,20,31-tetrazapentacyclo-[24.3.1.12,5.016,24.017,21]hentriaconta-1(30),2,4,16,18,21,23,26,28-nonaen-6-yl)phenyl]propanoic acid]
[1]
  DSLS (ΔTagg): A (an ΔTagg value less than or equal to 5 °C is marked “A”)
[2]
  TECC (test agent AUC divided by VX-809 AUC): A (a TECC value less than 3 is marked “A”)

## CN1CC(C)(C)CCCC(C)(c2ccc(CCC(=O)O)cc2)c2cnc([nH]2)-c2cc(ccc2F)Oc2c(F)cc3[nH]ccc3c2CCC1=O (single isomer, unassigned) [Compound 47B, 3-[4-(23,29-Difluoro-6,10,10,12-tetramethyl-13-oxo-25-oxa-3,12,20,31-tetrazapentacyclo-[24.3.1.12,5.016,24.017,21]hentriaconta-1(30),2,4,16,18,21,23,26,28-nonaen-6-yl)phenyl]propanoic acid]
[1]
  DSLS (ΔTagg): C (a value greater than 10 °C and less than or equal to 25 °C is marked “C”)
[2]
  TECC (test agent AUC divided by VX-809 AUC): A (a TECC value less than 3 is marked “A”)

## CN1CC(=O)CCCC(C)(c2cccc(CCC(=O)O)c2)c2cnc([nH]2)-c2cc(ccc2F)Oc2c(F)cc3[nH]ccc3c2CCC1=O (centres unmarked) [Compound 105, 3-[3-(23,29-Difluoro-6,12-dimethyl-10,13-dioxo-25-oxa-3,12,20,31-tetrazapentacyclo[24.3.1.12,5.016,24.017,21]hentriaconta-1(30),2,4,16,18,21,23,26,28-nonaen-6-yl)phenyl]propanoic acid]
[1]
  DSLS (ΔTagg): C (a value greater than 10 °C and less than or equal to 25 °C is marked “C”)
